Experimental data published in patent US8258186B2, “Pharmaceutical for oral delivery comprising MGBG” (Pathologica, LLC, priority 2009, dated 2012).

Experiments:
[1] = Rat single-dose pharmacokinetics; format: in vivo, Sprague Dawley rats
Experimental: Eighteen male Sprague Dawley rats (Charles River) weighing 217-263 g and aged 8-9 weeks were administered the test article, MGBG as either a single bolus intravenous dose of 1 mg/kg (Group 1) or as a single oral gavage dose of 10 mg/kg. A cohort of three animals was sacrificed via CO2 inhalation anaesthesia after final blood collection at each of T=2, 4, 12, 24, 36, and 48 hours post-dose. Dose formulation analysis verified administered dose solutions as within 17% of targeted concentration of 10 mg/kg.
Analysis was performed by LC/MS/MS. Pharmacokinetic analyses were performed on the mean MGBG plasma concentration versus time data using the non-compartmental approach (linear trapezoidal rule for AUC calculations). The WinNonlin sparse sampling tool was used for PK calculations. All samples reported as BQL (Below the Limit of Quantitation, in plasma 2.50 ng/mL) were changed to 0.00 ng/mL for the purpose of analysis.

[2] = Multi-species allometric scaling, predicted pharmacokinetic parameters in humans; conditions: predicted human, based on Mouse, Dog, Rhesus
Text: Multi-species allometric scaling based on pharmacokinetic parameters disclosed in Tables 2 and 3 was employed to calculate predicted pharmacokinetic parameters in humans according to methods known in the art. See, e.g., Ings R M, “Interspecies scaling and comparisons in drug development and toxicokinetics,” Xenobiotica, 1990 November; 20(11):1201-31 and Khor, S P et al., “Dihydropyrimidine dehydrogenase inactivation and 5-fluorouracil pharmacokinetics: allometric scaling of animal data, pharmacokinetics and toxicodynamics of 5-fluorouracil in humans,” Cancer Chemother Pharmacol (1997) 39(3): 833-38. Expected values are given below in Tables 6 and 7.

[3] = tested on: carrageenan air pouch inflammation; assay: Carrageenan air pouch model; format: in vivo, Swiss Webster mice; conditions: mice, MGBG PO BID 3, 10, 30 mg/kg/dose
Text: Injection of air subcutaneously will induce the formation of a connective tissue cavity lined with cells that resemble and function like a synovial lining. This method is commonly known as the Air Pouch Model and is a useful animal model of inflammation that can be generated in a relatively short period of time. The air pouch may be created by subcutaneous (SQ) injection of a volume of sterile air in the dorsal neck region. The model may be used to test the efficacy and potency of compounds such as polyamine analogues and polyamine biosynthesis inhibitors such as MGBG in reducing various cellular and biochemical indicators of inflammation when administered as an oral (PO) gavage administration.
Animals, compounds, and dosing. Healthy male Swiss Webster mice of 7-9 weeks of age and at least 30 g in weight were used. Animals were divided into six groups of thirty. Each group was administered 6 mL of air subcutaneously as described below on days 4 and 7. […] Tolerance of test compound dosing was monitored in mice by daily visual inspections of physical and behavioral changes, such as examined changes in body posture, hair coat, activity, excreta, etc., and dosing reevaluated upon negative findings. […]
Exudate, Plasma, and Histological Collection. The systemic exposure of the test article was evaluated as follows. Plasma samples were prepared and evaluated as follows. […]

[4] = male, Sprague Dawley, plasma, single bolus IV 1 mg/kg, mean
[5] = male, Sprague Dawley, plasma, single oral gavage 10 mg/kg, mean
[6] = male, Sprague Dawley, single bolus IV 1 mg/kg, plasma, mean

CC(/C=N/NC(=N)N)=N\NC(=N)N [MGBG, 1,1′[methylethanediylidene]dinitrilodiguanidine]
clinical findings ([1]; following dosing): Abnormal clinical findings were not noted
bioavailability ([1]; male, Sprague Dawley, plasma, oral 10 mg/kg vs IV 1 mg/kg): 11.6%
Tmax [1, 4]: 0.083 h
half-life [1, 4]: 1040 min
Tmax [1, 5]: 4.67 h
half-life [1, 5]: 1690 min
AUC [1, 6]: 1250 ng·h/mL
Cmax [1, 6]: 684 ng/mL
AUC ([1]; male, Sprague Dawley, single oral gavage 10 mg/kg, AUCall, time zero to last plasma concentration measurement): 1280 ng·h/mL
Cmax ([1]; male, Sprague Dawley, single oral gavage 10 mg/kg, plasma, mean): 55.8 ng/mL
time point through which MGBG levels in plasma were measurable ([1]; single PO 10 mg/kg, beyond that certain samples BLQ): 12 h
Clobs ([1]; single bolus IV 1 mg/kg, mean): 13.4 mL/min/kg
VSSobs ([1]; single bolus IV 1 mg/kg, mean): 15.4 L/kg
Clobs ([1]; single oral gavage 10 mg/kg, mean): 3.18 mL/min/kg
VSS ([2]; IV): 9.1 L/kg
t1/2 ([2]; IV): 13.3 h
t1/2 ([2]; IV, Rat): 13.4 h
CL ([2]; ORAL): 20.9 mL/min/kg
t1/2 ([2]; ORAL): 23.0 h
t1/2 ([2]; ORAL, Rat): 23.3 h
efficacy, changes relative to control indicative of reduced inflammation [3]: efficacious
